Literature values, collected in patent US20090281186A1, “Composition and Method for Reducing Stress” (priority 2008, published 2009).

Legend:
[1] = system: dopamine release from the corpus straitum; serotonin levels in the hippocampus and thalamus; settings: rats, L-theanine administration
[2] = sixteen individuals; acute administration; 200 mg of L-theanine or 1 mg of alprazolam vs placebo
[3] = 21 patients; 12 grams of inositol per day for four weeks; compared to placebo
[4] = inositol compared with fluvoxamine

Row | SMILES | dopamine release from the corpus straitum [1] | serotonin levels in the hippocampus and thalamus [1] | acute stress responses (psychological and physiological measures) (oral administration, 200 mg of L-theanine) | perception of stress (psychological measures) (twelve individuals, 200 mg of L-theanine before or midway through the task vs placebo) | heart rates during the stress task (twelve individuals, 200 mg of L-theanine vs placebo) | effect on subjects during the experimental relaxed state [2] | severity and frequency of panic attacks [3] | effectiveness in treating panic disorders [4]
1 | CCNC(=O)CCC(N)C(=O)O [L-theanine, 2-amino-4-(ethylcarbamoyl)butyric acid] | increase dopamine release | increase serotonin levels | acute stress responses were reduced | greater increase in the perception of stress in the placebo condition compared to the other conditions | heart rates were higher in the placebo condition compared to the L-theanine groups | caused a tranquil state | – | –
2 | Cc1nnc2n1-c1ccc(Cl)cc1C(c1ccccc1)=NC2 [alprazolam, reference compound] | – | – | – | – | – | had no effect | – | –
3 | O[C@H]1[C@H](O)[C@@H](O)[C@H](O)[C@@H](O)[C@H]1O [inositol, cis-1,2,3,5-trans-4,6-cyclohexanehexol] | – | – | – | – | – | – | significantly decreased | equally effective
